Some results are limits rather than exact numbers.

In the assay the target is T1, Jak3 (Homo sapiens, UniProt P52333).
T1 construct: catalytic domain of Jak3 (508aa to 1124aa); made in house; host or cells: Sf9 insect cells (baculovirus, pFastBac 1)
T1 sequence (P52333 508-1124): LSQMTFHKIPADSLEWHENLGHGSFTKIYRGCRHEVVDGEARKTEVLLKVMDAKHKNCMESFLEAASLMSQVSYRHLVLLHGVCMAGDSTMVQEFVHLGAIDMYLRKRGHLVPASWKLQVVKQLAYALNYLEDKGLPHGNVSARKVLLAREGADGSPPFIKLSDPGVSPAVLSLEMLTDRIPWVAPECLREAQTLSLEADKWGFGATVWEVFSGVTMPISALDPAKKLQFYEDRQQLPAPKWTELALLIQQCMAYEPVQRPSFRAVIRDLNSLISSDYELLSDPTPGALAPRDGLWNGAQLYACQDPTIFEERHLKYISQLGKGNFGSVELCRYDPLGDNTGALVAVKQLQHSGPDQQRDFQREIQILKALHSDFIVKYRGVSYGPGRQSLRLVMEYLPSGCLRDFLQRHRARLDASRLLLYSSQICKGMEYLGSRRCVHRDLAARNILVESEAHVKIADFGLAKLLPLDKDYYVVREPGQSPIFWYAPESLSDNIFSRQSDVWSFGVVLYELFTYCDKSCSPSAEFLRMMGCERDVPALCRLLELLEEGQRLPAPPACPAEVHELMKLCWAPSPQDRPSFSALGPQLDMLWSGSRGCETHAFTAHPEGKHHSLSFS
Nature of the assay: Jak3 Kinase Assay (HTRF, GST-Jak3 catalytic domain). The assay is classed as biochemical. Particulars: 1 μM ATP, 60-min incubation, read-out: Jak 3 (Converted). The method, then:
Human Jak3 cDNA was amplified by PCR. A fragment encoding the catalytic domain of Jak3 (508aa to 1124aa) was ligated with GST at 5′ end. This fused GST-Jak3 DNA fragment was cloned into the EcoRI site of the donor plasmid pFastBac 1 (Life Technologies #10359-016). The transformation, transposition, and transfection of insect cells (Sf9) were performed according to the manufacture's instructions. The cell lysate containing recombinant GST-Jak3 was used in the kinase assay. Anti-GST antibody (10 μg/ml, Sigma #G1417) was coated onto a 384-well plate at 4° C. overnight. Cell lysate containing GST-Jak3 (1:100 dilution) was added to the anti-GST coated plates, and GST-Jak3 was captured by immobilized anti-GST antibody. Testing compounds and substrate mix (50 mM HEPES, pH 7, 0.5 mM Na3VO4, 25 mM MgCl2, 1 mM DTT, 0.005% BSA, 1 μM ATP, and 4.5 μg/ml biotinyl poly-Glu, Ala, Tyr) were added to the plate to initiate the reaction. After a 60-min incubation, the reaction was stopped by 4 mM EDTA, and phosphorylation of biotinyl poly-Glu, Ala, Tyr was detected using 17 μg/ml Cy5-streptavidin (Amersham, #PA92005) and 2.7 μg/ml Europium-conjugated anti-phosphotyrosine antibody (PerkinElmer #AD0069) using homogeneous time-resolved fluorescence (HTRF) technology.
With `Oc1cccc(-c2nc3cnc(-n4cnc5ccc(F)cc54)nc3n2C2CCOCC2)c1` [Example 71], the IC50 is below 100 nM.
Then `Fc1ccc2ncn(-c3ncc4nc(-c5ccc(F)nc5)n(C5CCOCC5)c4n3)c2c1` [Example 46], with below 100 nM; and `Oc1ccc(-c2nc3cnc(-n4cnc5ccc(F)cc54)nc3n2C2CCOCC2)cc1` [Example 54], with 100 to 1000 nM; and `N#Cc1ccc2ncn(-c3ncc4nc(-c5cnc(O)nc5O)n(C5CCOCC5)c4n3)c2c1` [Example 10], with below 100 nM.
On to `O=C(O)c1cccc(-c2nc3cnc(-n4cnc5ccc(F)cc54)nc3n2C2CCOCC2)c1` [Example 45], for which the IC50 is below 100 nM.
In the case of `CO[C@H]1CC[C@H](n2c(C)nc3cnc(-n4cnc5ccc(C#N)cc54)nc32)CC1` [Example 23], the IC50 is 100 to 1000 nM.
With `Fc1ccc2ncn(-c3ncc4nc(-c5ccc[nH]5)n(C5CCOCC5)c4n3)c2c1` [Example 62], the IC50 is below 100 nM.
`Fc1ccc2ncn(-c3ncc4c(n3)C([C@@H]3CCOc5ccccc53)C(CCl)=N4)c2c1` (stereo partly shown) [Example 77]: the IC50 was below 100 nM.
In the case of `Fc1ccc2ncn(-c3ncc4nc(-c5cncnc5)n(C5CCOCC5)c4n3)c2c1` [Example 38], the IC50 was below 100 nM.
In the case of `Fc1ccc2ncn(-c3ncc4nc(Cl)n([C@@H]5CCOc6c(F)cccc65)c4n3)c2c1` [Example 102, 8-chloro-2-(6-fluoro-1H-benzo[d]imidazol-1-yl)-9-((R)-8-fluorochroman-4-yl)-9H-purine] it was below 100 nM; in that of `Fc1cccc(-c2nc3cnc(-n4cnc5ccc(F)cc54)nc3n2C2CCOCC2)c1` [Example 67], 100 to 1000 nM; in that of `COCCC(C)n1c(-c2c[nH]c3ccccc23)nc2cnc(-n3cnc4ccc(F)cc43)nc21` (stereo not shown) [Example 27], 100 to 1000 nM.
In the case of `Fc1ccc2ncn(-c3ncc4nc(-c5nccs5)n(C5CCOCC5)c4n3)c2c1` [Example 48], the IC50 lay within 100 to 1000 nM.
Then `Fc1ccc2ncn(-c3ncc4nc(-c5cncnc5)n([C@@H]5CCOc6c(F)cccc65)c4n3)c2c1` [Example 55], with below 100 nM.
Regarding `Fc1ccc2ncn(-c3ncc4nc(-c5ccccn5)n(C5CCOCC5)c4n3)c2c1` [Example 66], the IC50 is 100 to 1000 nM.
Regarding `COc1cccc(-c2nc3cnc(-n4cnc5ccc(C#N)cc54)nc3n2C2CCOCC2)c1` [Example 4], the IC50 is 100 to 1000 nM.
With `CS(=O)(=O)Nc1cccc(-c2nc3cnc(-n4cnc5ccc(C#N)cc54)nc3n2C2CCOCC2)c1` [Example 14], the IC50 was below 100 nM.
Then `c1ccc(Cn2c(-c3ccccc3)nc3cnc(-n4cnc5ccccc54)nc32)cc1` [Example 89], with above 1000 nM; and `N#Cc1ccc2ncn(-c3ncc4nc(NCC5CCCO5)n(C5CCOCC5)c4n3)c2c1` (stereo not shown) [Example 93], with below 100 nM.
On to `Cc1cccc(-c2nc3cnc(-n4cnc5ccc(F)cc54)nc3n2C2CCOCC2)n1` [Example 41], for which the IC50 was above 1000 nM.
Consider `[O-][n+]1ccc(-c2nc3cnc(-n4cnc5ccc(F)cc54)nc3n2C2CCOCC2)cc1` [Example 88], for which the IC50 was in the range of 100 to 1000 nM.
Turning to `COc1ccc(-c2nc3cnc(-n4cnc5ccc(F)cc54)nc3n2C2CCOCC2)cn1` [Example 63], the IC50 is below 100 nM.
`CC(C)Sc1nccc(-c2nc3cnc(-n4cnc5ccc(C#N)cc54)nc3n2[C@@H]2CCOc3c(F)ccc(F)c32)n1` [Example 20]: the IC50 was 100 to 1000 nM.
`CN(C)c1ncc(-c2nc3cnc(-n4cnc5ccc(C#N)cc54)nc3n2C2CCOCC2)cn1` [Example 17]: the IC50 is below 100 nM.
`Fc1ccc2ncn(-c3ncc4nc(-c5ccncc5)n(C5CCOCC5)c4n3)c2c1` [Example 32]: the IC50 was below 100 nM.
For `Cc1cccc(-c2nc3cnc(-n4cnc5ccc(C#N)cc54)nc3n2C2CCOCC2)c1` [Example 12], the IC50 was 100 to 1000 nM.
Regarding `Fc1cccc2c1COC[C@H]2n1c(-c2ccccc2)nc2cnc(-n3cnc4ccccc43)nc21` [Example 87], the IC50 lay within 100 to 1000 nM.
Take `Fc1ccc2ncn(-c3ncc4nc(-c5ccc(Br)nc5)n(C5CCOCC5)c4n3)c2c1` [Example 36]: the IC50 was below 100 nM.
Consider `Cc1nc2cnc(-n3cnc4ccc(Cl)cc43)nc2n1C1CCOCC1` [Example 74], for which the IC50 was below 100 nM.
Turning to `COC1CCN([C@H]2C(C)=Nc3cnc(-n4cnc5ccc(F)cc54)nc32)CC1` [Example 21], the IC50 was in the range of 100 to 1000 nM.
For the compound `Fc1ccc2ncn(-c3ncc4nc(Cc5ccccc5)n(C5CCOCC5)c4n3)c2c1` [Example 90, 8-Benzyl-2-(6-fluoro-1H-benzo[d]imidazol-1-yl)-9-(tetrahydro-2H-pyran-4-yl)-9H-purine], the IC50 lay within 100 to 1000 nM.
For `N#Cc1ccc2ncn(-c3ncc4nc(NCCN5CCOCC5)n(C5CCOCC5)c4n3)c2c1` [Example 95], the IC50 was below 100 nM.
Regarding `Fc1ccc2ncn(-c3ncc4nc(-c5cccc(Cl)c5)n(C5CCOCC5)c4n3)c2c1` [Example 60], the IC50 lay within 100 to 1000 nM.
On to `CSc1nc2cnc(-n3cnc4ccc(F)cc43)nc2n1[C@@H]1CCOc2c(F)cccc21` [Example 111], for which the IC50 is below 100 nM.
On to `N#Cc1cccc(Nc2nc3cnc(-n4cnc5ccc(Cl)cc54)nc3n2C2CCOCC2)c1` [Example 110], for which the IC50 was above 1000 nM.
As for `COc1cccc(Nc2nc3cnc(-n4cnc5ccc(C#N)cc54)nc3n2C2CCOCC2)c1` [Example 108], the IC50 was below 100 nM.
With `Fc1ccc2ncn(-c3ncc4nc(-c5ccc(Cl)nc5)n(C5CCOCC5)c4n3)c2c1` [Example 47], the IC50 was below 100 nM.
As to `N#Cc1ccc2ncn(-c3ncc4nc(-c5cccc(O)c5)n(C5CCOCC5)c4n3)c2c1` [Example 8], the IC50 is below 100 nM.
Turning to `N#Cc1ccc2ncn(-c3ncc4nc(-c5cncnc5)n([C@@H]5CCOc6ccc(F)cc65)c4n3)c2c1` [Example 2], the IC50 is below 100 nM.
For `Cc1nc2cnc(-n3cnc4ccc(F)cc43)nc2n1C1CCOCC1` [Example 72], the IC50 was below 100 nM.
For `COC(=O)c1cccc(-c2nc3cnc(-n4cnc5ccc(F)cc54)nc3n2C2CCOCC2)c1` [Example 31], the IC50 is 100 to 1000 nM.
On to `N#Cc1ccc2ncn(-c3ncc4nc(Nc5cccnc5)n([C@@H]5CCOc6ccccc65)c4n3)c2c1` [Example 104], for which the IC50 was below 100 nM.
Take `CCCc1nc2cnc(-n3cnc4ccc(C#N)cc43)nc2n1C1CCOc2ccc(F)cc21` (stereo not shown) [Example 22]: the IC50 was below 100 nM.
Regarding `Fc1cccc2c1COCC2n1c(-c2ccccc2)nc2cnc(-n3cnc4ccccc43)nc21` (stereo not shown) [Example 86, 2-(1H-benzo[d]imidazol-1-yl)-9-(8-fluoroisochroman-4-yl)-8-phenyl-9H-purine], the IC50 is above 1000 nM.
Regarding `COCCCn1c(C)nc2cnc(-n3cnc4ccccc43)nc21` [Example 84], the IC50 was above 1000 nM.
Then `Cc1nc2cnc(-n3cnc4ccc(Cl)cc43)nc2n1[C@H](C)C(=O)NCC(F)(F)F` [Example 92, (2R)-2-(2-(6-chloro-1H-benzo[d]imidazol-1-yl)-8-methyl-9H-purin-9-yl)-N-(2,2,2-trifluoroethyl)propanamide], with below 100 nM; and `Cc1nc2cnc(-n3cnc4ccc(OC(F)(F)F)cc43)nc2n1[C@@H]1CCOc2c(F)cccc21` [Example 75], with 100 to 1000 nM.
Consider `COc1ccccc1-c1nc2cnc(-n3cnc4ccc(C#N)cc43)nc2n1C1CCOCC1` [Example 18], for which the IC50 lay in the range of 100 to 1000 nM.
With `COc1ccc(-c2nc3cnc(-n4cnc5ccc(C#N)cc54)nc3n2C2CCOCC2)cc1` [Example 19], the IC50 fell in the range of 100 to 1000 nM.

Source of the values: patent publication US7915268B2, “8-substituted 2-(benzimidazolyl)purine derivatives for immunosuppression” (Wyeth LLC, priority 2006, dated 2011).
